Reference: US20250250261A1, “NOVEL SUBSTITUTED FLUORINATED VINYL-N-PROPYL-PYRROLIDINE COMPOUNDS, PROCESSES FOR THEIR PREPARATION AND THERAPEUTIC USES THEREOF” (SANOFI, priority 2022, published 2025)

Target: T1, ERα (Homo sapiens, UniProt P03372)
T1 construct: host or cells: MCF7
T1 sequence (P03372 1-595): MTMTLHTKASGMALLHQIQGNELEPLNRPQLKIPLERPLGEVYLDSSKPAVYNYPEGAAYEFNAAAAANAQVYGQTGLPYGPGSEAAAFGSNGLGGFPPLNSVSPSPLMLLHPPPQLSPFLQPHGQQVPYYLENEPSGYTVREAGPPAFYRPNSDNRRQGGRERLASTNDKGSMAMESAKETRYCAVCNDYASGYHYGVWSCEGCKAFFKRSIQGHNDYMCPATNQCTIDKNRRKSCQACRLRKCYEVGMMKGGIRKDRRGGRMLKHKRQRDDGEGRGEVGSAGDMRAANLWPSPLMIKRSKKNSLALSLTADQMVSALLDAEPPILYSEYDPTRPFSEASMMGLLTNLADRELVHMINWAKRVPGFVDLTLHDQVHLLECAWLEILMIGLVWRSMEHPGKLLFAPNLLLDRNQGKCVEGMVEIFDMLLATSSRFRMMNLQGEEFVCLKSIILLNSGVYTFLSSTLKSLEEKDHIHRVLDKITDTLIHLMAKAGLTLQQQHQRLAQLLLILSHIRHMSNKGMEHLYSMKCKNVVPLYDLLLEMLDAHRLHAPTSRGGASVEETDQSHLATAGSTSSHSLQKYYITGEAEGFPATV
Assay: Estrogen receptor degradation activity: breast cancer cell ERα in cell western assay (MCF7 cells)
Format: cell-based
Settings: 4 hours, % of ERα levels decrease relative to fulvestrant (0.1 μM) and DMSO
Description: Test: Estrogen Receptor Degradation Activity
Said test involves measuring the in vitro degradation activity of the compounds of the Table 1a.
The measurements of the degradation activities were made using a breast cancer cell ERα in cell western assay as described hereunder.
MCF7 cells (ATCC) were seeded in 384 wells microplate (collagen coated) at a concentration of 10000 cells/30 μL per well in red phenol free MEM alpha medium (invitrogen) containing 5% charcoal dextran striped FBS. The following day, 9 points serial 1:5 dilution of each compound was added to the cells in 2.5 μL at final concentrations ranging from 0.3-0.0000018 μM (in table 2), or 0.1 μM for fulvestrant (using as positive control). At 4 hours post compound addition the cells were fixed by adding 25 μL of formalin (final concentration 5% formalin containing 0.1% triton) for 10 minutes at room temperature and then washed twice with PBS. Then, 50 μL of LI-COR blocking buffer containing 0.1% Triton was added to plate for 30 minutes at room temperature. LI-COR blocking buffer was removed and cells were incubated overnight at cold room with 50 μL anti-ER rabbit monoclonal antibody (Thermo scientific MA1-39540) diluted at 1:1000 in LI-COR blocking buffer containing 0.1% tween-20. Wells which were treated with blocking buffer but no antibody were used as background control. Wells were washed twice with PBS (0.1% tween-20) and incubated at 37° C. for 60 minutes in LI-COR (0.1% tween-20) containing goat anti-rabbit antibody Alexa 488 (1:1000) and Syto-64 a DNA dye (2 μM final concentration). Cells were then washed 3 times in PBS and scanned in ACUMEN explorer (TTP-Labtech). Integrated intensities in the green fluorescence and red fluorescence were measured to determine the levels of ERα and DNA respectively.
The degradation activity with respect to estrogen receptors in this test is given by the concentration which degrades 50% of the estrogen receptor (or IC50) in nM.
The % of ERα levels decrease were determined as follows: % inhibition=100*(1−(sample−fulvestrant:DMSO−fulvestrant)).

% Degradation At 0.3 μM | SMILES
85% | Cc1cc(F)cc(C)c1C1=C(c2ccc(/C=C3/CCN(CCC(F)F)C3)cc2)c2ccc(C(=O)O)cc2CCC1 [Compound 20]
89% | O=C(O)c1ccc2c(c1)CCCC(c1ccccc1C(F)(F)F)=C2c1ccc(/C=C2/CCN(CCCF)C2)cc1 [Compound 22, (Z)-9-(4-((1-(3-fluoropropyl)pyrrolidin-3-ylidene)methyl)phenyl)-8-(2-(trifluoromethyl)phenyl)-6,7-dihydro-5H-benzo[7]annulene-3-carboxylic acid]
96% | Cc1cc(F)ccc1C1=C(c2ccc(/C=C3/CCN(CCCF)C3)cc2)c2ccc(C(=O)O)cc2CCC1 [Compound 6, (Z)-8-(4-fluoro-2-methylphenyl)-9-(4-((1-(3-fluoropropyl)pyrrolidin-3-ylidene)methyl)phenyl)-6,7-dihydro-5H-benzo[7]annulene-3-carboxylic acid]
88% | Cl.O=C(O)c1ccc2c(c1)CCCC(c1ccc(F)cc1F)=C2c1ccc(/C=C2/CCN(CCC(F)F)C2)cc1 [Compound 5, (Z)-8-(2,4-difluorophenyl)-9-(4-((1-(3,3-difluoropropyl)pyrrolidin-3-ylidene)methyl)phenyl)-6,7-dihydro-5H-benzo[7]annulene-3-carboxylic acid hydrochloride]
88% | Cc1cc(F)ccc1C1=C(c2ccc(/C=C3/CCN(CCC(F)F)C3)cc2)c2ccc(C(=O)O)cc2CCC1 [Compound 15, (Z)-9-(4-((1-(3,3-difluoropropyl)pyrrolidin-3-ylidene)methyl)phenyl)-8-(4-fluoro-2-methylphenyl)-6,7-dihydro-5H-benzo[7]annulene-3-carboxylic acid]
87% | Cc1c(C2=C(c3ccc(/C=C4/CCN(CCC(F)F)C4)cc3)c3ccc(C(=O)O)cc3CCC2)cccc1C(F)(F)F [Compound 19, (Z)-9-(4-((1-(3,3-difluoropropyl)pyrrolidin-3-ylidene)methyl)phenyl)-8-(2-methyl-3-(trifluoromethyl)phenyl)-6,7-dihydro-5H-benzo[7]annulene-3-carboxylic acid]
95% | Cl.O=C(O)c1ccc2c(c1)OCCC(c1ccc(Cl)cc1Cl)=C2c1ccc(/C=C2/CCN(CCCF)C2)cc1 [Compound 3, (Z)-4-(2,4-dichlorophenyl)-5-(4-((1-(3-fluoropropyl)pyrrolidin-3-ylidene)methyl)phenyl)-2,3-dihydrobenzo[b]oxepine-8-carboxylic acid hydrochloride]
76% | Cl.Oc1ccc2c(c1)CCCC(c1ccc(Cl)cc1Cl)=C2c1ccc(/C=C2/CCN(CCCF)C2)cc1 [Compound 16, (Z)-8-(2,4-dichlorophenyl)-9-(4-((1-(3-fluoropropyl)pyrrolidin-3-ylidene)methyl)phenyl)-6,7-dihydro-5H-benzo[7]annulen-3-ol hydrochloride]
96% | Cl.O=C(O)c1ccc2c(c1)CCCC(c1ccc(Cl)cc1Cl)=C2c1ccc(/C=C2/CCN(CCCF)C2)cc1 [Compound 1, (Z)-8-(2,4-dichlorophenyl)-9-(4-((1-(3,3-fluoropropyl)pyrrolidin-3-ylidene)methyl)phenyl)-6,7-dihydro-5H-benzo[7]annulene-3-carboxylic acid, hydrochloride]
93% | Cc1cccc(C2=C(c3ccc(/C=C4/CCN(CCCF)C4)cc3)c3ccc(C(=O)O)cc3CCC2)c1C(F)(F)F [Compound 11, (Z)-9-(4-((1-(3-fluoropropyl)pyrrolidin-3-ylidene)methyl)phenyl)-8-(3-methyl-2-(trifluoromethyl)phenyl)-6,7-dihydro-5H-benzo[7]annulene-3-carboxylic acid]
93% | O=C(O)c1ccc2c(c1)CCCC(c1cccc(Cl)c1)=C2c1ccc(/C=C2/CCN(CCCF)C2)cc1 [Compound 27, (Z)-8-(3-chlorophenyl)-9-(4-((1-(3-fluoropropyl)pyrrolidin-3-ylidene)methyl)phenyl)-6,7-dihydro-5H-benzo[7]annulene-3-carboxylic acid]
92% | O=C(O)c1ccc2c(c1)CCCC(c1ccc(C(F)(F)F)cc1)=C2c1ccc(/C=C2/CCN(CCCF)C2)cc1 [Compound 26, (Z)-9-(4-((1-(3-fluoropropyl)pyrrolidin-3-ylidene)methyl)phenyl)-8-(4-(trifluoromethyl)phenyl)-6,7-dihydro-5H-benzo[7]annulene-3-carboxylic acid]
73% | O=C(O)c1ccc2c(c1)CCCC(c1ccc(Cl)cc1Cl)=C2c1ccc(C=C2CCN(CCC(F)F)C2)cc1 [Compound 4, (Z)-8-(2,4-dichlorophenyl)-9-(4-((1-(3,3-difluoropropyl)pyrrolidin-3-ylidene)methyl)phenyl)-6,7-dihydro-5H-benzo[7]annulene-3-carboxylic acid]
94% | Cc1cc(F)cc(C)c1C1=C(c2ccc(/C=C3/CCN(CCCF)C3)cc2)c2ccc(C(=O)O)cc2CCC1 [Compound 21, (Z)-8-(4-fluoro-2,6-dimethylphenyl)-9-(4-((1-(3-fluoropropyl)pyrrolidin-3-ylidene)methyl)phenyl)-6,7-dihydro-5H-benzo[7]annulene-3-carboxylic acid]
92% | Cc1c(Cl)cccc1C1=C(c2ccc(/C=C3/CCN(CCCF)C3)cc2)c2ccc(C(=O)O)cc2CCC1 [Compound 10, (Z)-8-(3-chloro-2-methylphenyl)-9-(4-((1-(3-fluoropropyl)pyrrolidin-3-ylidene)methyl)phenyl)-6,7-dihydro-5H-benzo[7]annulene-3-carboxylic acid]
92% | Cc1c(C2=C(c3ccc(/C=C4/CCN(CCCF)C4)cc3)c3ccc(C(=O)O)cc3CCC2)cccc1C(F)(F)F [Compound 14, (Z)-9-(4-((1-(3-fluoropropyl)pyrrolidin-3-ylidene)methyl)phenyl)-8-(2-methyl-3-(trifluoromethyl)phenyl)-6,7-dihydro-5H-benzo[7]annulene-3-carboxylic acid]
61% | Oc1ccc2c(c1)CCCC(c1ccc(Cl)cc1Cl)=C2c1ccc(/C=C2/CCN(CCC(F)F)C2)cc1 [Compound 17, (Z)-8-(2,4-dichlorophenyl)-9-(4-((1-(3-difluoropropyl)pyrrolidin-3-ylidene)methyl)phenyl)-6,7-dihydro-5H-benzo[7]annulen-3-ol]
93% | O=C(O)c1ccc2c(c1)CCCC(c1ccc(F)cc1F)=C2c1ccc(/C=C2/CCN(CCCF)C2)cc1 [Compound 9, (Z)-8-(2,4-difluorophenyl)-9-(4-((1-(3,3-fluoropropyl)pyrrolidin-3-ylidene)methyl)phenyl)-6,7-dihydro-5H-benzo[7]annulene-3-carboxylic]
90% | Oc1ccc2c(c1)SCCC(c1ccc(Cl)cc1Cl)=C2c1ccc(/C=C2/CCN(CCCF)C2)cc1 [Compound 30, (Z)-4-(2,4-dichlorophenyl)-5-(4-((1-(3-fluoropropyl)pyrrolidin-3-ylidene)methyl)phenyl)-2,3-dihydrobenzo[b]thiepin-8-ol]
91% | O=C(O)c1ccc2c(c1)CCCC(c1cccc(C(F)(F)F)c1)=C2c1ccc(/C=C2/CCN(CCCF)C2)cc1 [Compound 25, (Z)-9-(4-((1-(3-fluoropropyl)pyrrolidin-3-ylidene)methyl)phenyl)-8-(3-(trifluoromethyl)phenyl)-6,7-dihydro-5H-benzo[7]annulene-3-carboxylic acid]
90% | O=C(O)c1ccc2c(c1)CCCC(c1ccc(F)cc1C(F)(F)F)=C2c1ccc(/C=C2/CCN(CCCF)C2)cc1 [Compound 8, (Z)-8-(4-fluoro-2-(trifluoromethyl)phenyl)-9-(4-((1-(3-fluoropropyl)pyrrolidin-3-ylidene)methyl)phenyl)-6,7-dihydro-5H-benzo[7]annulene-3-carboxylic acid]
